# Measured values from ChEMBL document CHEMBL1697731, “Cheminformatics analysis of assertions mined from literature that describe drug-induced liver injury in different species” (Chem Res Toxicol, 2010).
# Where a SMILES comes first, the peptide text is derived from it. Bridges are numbered along the chain shown (N, C = ends). [ ]: non-standard residue; d: D form. The star is where a group is joined. Ileψ(thiazoline)Cys = CC[C@H](C)[C@H](N)C1=N[C@H](C(=O)*)CS1; dOrn = NCCC[C@@H](N)C(=O)O
# Legend:
# Hepatotoxicity [1] = test: Literature-mined compound from Fourches et al multi-species drug-induced liver injury (DILI) dataset, effect in humans; details: human
# Hepatotoxicity [2] = test: Literature-mined compound from Fourches et al multi-species drug-induced liver injury (DILI) dataset, effect in rodents; details: rodentia
# Hepatotoxicity [3] = test: Literature-mined compound from Fourches et al multi-species drug-induced liver injury (DILI) dataset, effect in non-rodents
Compound,Hepatotoxicity (Hepatotoxicity [1]; Liver),Hepatotoxicity (Hepatotoxicity [2]; Liver),Hepatotoxicity (Hepatotoxicity [3]; Liver),Hepatotoxicity (Hepatotoxicity [1]),Hepatotoxicity (Hepatotoxicity [2]),Hepatotoxicity (Hepatotoxicity [3])
CCCCc1oc2ccccc2c1C(=O)c1cc(I)c(OCCN(CC)CC)c(I)c1 [AMIODARONE],drug-induced liver injury reported,drug-induced liver injury reported,drug-induced liver injury reported,,,
CN(C)CCC=C1c2ccccc2CCc2ccccc21 [AMITRIPTYLINE],,,,drug-induced liver injury reported,drug-induced liver injury reported,no drug-induced liver injury reported
CCOC(=O)C1=C(COCCN)NC(C)=C(C(=O)OC)C1c1ccccc1Cl (configuration not stated) [AMLODIPINE],,,,no drug-induced liver injury reported,drug-induced liver injury reported,no drug-induced liver injury reported
CCC1(CCC(C)C)C(=O)NC(=O)NC1=O [AMOBARBITAL],,,,no drug-induced liver injury reported,drug-induced liver injury reported,no drug-induced liver injury reported
CC1(C)S[C@@H]2[C@H](NC(=O)[C@H](N)c3ccc(O)cc3)C(=O)N2[C@H]1C(=O)O.O=C([O-])[C@H]1/C(=C/CO)O[C@@H]2CC(=O)N21.[K+] [AMOXICILLIN/CLAVULANIC ACID],,,,drug-induced liver injury reported,no drug-induced liver injury reported,no drug-induced liver injury reported
CC1(C)S[C@@H]2[C@H](NC(=O)[C@H](N)c3ccc(O)cc3)C(=O)N2[C@H]1C(=O)O [AMOXICILLIN],,,,drug-induced liver injury reported,no drug-induced liver injury reported,no drug-induced liver injury reported
CC(N)Cc1ccccc1 (configuration not stated) [AMPHETAMINE],,,,drug-induced liver injury reported,drug-induced liver injury reported,no drug-induced liver injury reported
C[C@@H]1[C@H](O)[C@@H](C)/C=C/C=C/C=C/C=C/C=C/C=C/C=C/[C@H](O[C@@H]2O[C@H](C)[C@@H](O)[C@H](N)[C@@H]2O)C[C@@H]2O[C@](O)(C[C@@H](O)C[C@@H](O)[C@H](O)CC[C@@H](O)C[C@@H](O)CC(=O)O[C@H]1C)C[C@H](O)[C@H]2C(=O)O [AMPHOTERICIN B],,,,drug-induced liver injury reported,drug-induced liver injury reported,no drug-induced liver injury reported
CC1(C)S[C@@H]2[C@H](NC(=O)[C@H](N)c3ccccc3)C(=O)N2[C@H]1C(=O)O [AMPICILLIN],,,,drug-induced liver injury reported,drug-induced liver injury reported,no drug-induced liver injury reported
COc1cc(NS(C)(=O)=O)ccc1Nc1c2ccccc2nc2ccccc12 [AMSACRINE],,,,drug-induced liver injury reported,no drug-induced liver injury reported,no drug-induced liver injury reported
CC(C)(C#N)c1cc(Cn2cncn2)cc(C(C)(C)C#N)c1 [ANASTROZOLE],,,,drug-induced liver injury reported,no drug-induced liver injury reported,no drug-induced liver injury reported
COc1ccc(-c2cc(=S)ss2)cc1 [ANETHOLTRITHION],,,,no drug-induced liver injury reported,drug-induced liver injury reported,no drug-induced liver injury reported
O=C1c2c(O)cccc2Cc2cccc(O)c21 [ANTHRALIN],,,,drug-induced liver injury reported,drug-induced liver injury reported,no drug-induced liver injury reported
CN1CCc2cccc3c2[C@H]1Cc1ccc(O)c(O)c1-3 [APOMORPHINE],,,,no drug-induced liver injury reported,drug-induced liver injury reported,no drug-induced liver injury reported
C=CCC1(C(C)C)C(=O)NC(=O)NC1=O [APROBARBITAL],,,,no drug-induced liver injury reported,drug-induced liver injury reported,no drug-induced liver injury reported
N=C(N)NCCC[C@H](N)C(=O)O [ARGININE],,,,drug-induced liver injury reported,drug-induced liver injury reported,drug-induced liver injury reported
O=C1O[C@H]([C@@H](O)CO)C(O)=C1O [ASCORBIC ACID],,,,drug-induced liver injury reported,drug-induced liver injury reported,drug-induced liver injury reported

Compound,Hepatotoxicity (Hepatotoxicity [1]; Liver),Hepatotoxicity (Hepatotoxicity [2]; Liver),Hepatotoxicity (Hepatotoxicity [3]; Liver),Hepatotoxicity (Hepatotoxicity [1]),Hepatotoxicity (Hepatotoxicity [2]),Hepatotoxicity (Hepatotoxicity [3])
CC(=O)Oc1ccccc1C(=O)O.NCCCCC(N)C(=O)O [ASPIRIN DL-LYSINE],,,,drug-induced liver injury reported,drug-induced liver injury reported,no drug-induced liver injury reported
CC(=O)Oc1ccccc1C(=O)O [ASPIRIN],,,,drug-induced liver injury reported,drug-induced liver injury reported,drug-induced liver injury reported
CC1=C(/C=C/C(C)=C/C=C/C(C)=C/C=C/C=C(C)/C=C/C=C(C)/C=C/C2=C(C)C(=O)[C@@H](O)CC2(C)C)C(C)(C)C[C@H](O)C1=O [ASTAXANTHIN],,,,no drug-induced liver injury reported,drug-induced liver injury reported,no drug-induced liver injury reported
COC(=O)N[C@H](C(=O)N[C@@H](Cc1ccccc1)[C@@H](O)CN(Cc1ccc(-c2ccccn2)cc1)NC(=O)[C@@H](NC(=O)OC)C(C)(C)C)C(C)(C)C [ATAZANAVIR],,,,drug-induced liver injury reported,no drug-induced liver injury reported,no drug-induced liver injury reported
CC(C)NCC(O)COc1ccc(CC(N)=O)cc1 (configuration not stated) [ATENOLOL],drug-induced liver injury reported,no drug-induced liver injury reported,no drug-induced liver injury reported,,,
CCCC1(CCC)CCC2(CCN(CCCN(CC)CC)C2)CC1 [ATIPRIMOD],,,,drug-induced liver injury reported,no drug-induced liver injury reported,no drug-induced liver injury reported
CNCC[C@@H](Oc1ccccc1C)c1ccccc1.Cl [ATOMOXETINE HYDROCHLORIDE],,,,drug-induced liver injury reported,no drug-induced liver injury reported,no drug-induced liver injury reported
CC(C)c1c(C(=O)Nc2ccccc2)c(-c2ccccc2)c(-c2ccc(F)cc2)n1CC[C@@H](O)C[C@@H](O)CC(=O)O [ATORVASTATIN],drug-induced liver injury reported,drug-induced liver injury reported,drug-induced liver injury reported,,,
CC(C)c1cc(C(C)C)c(CC(=O)NS(=O)(=O)Oc2c(C(C)C)cccc2C(C)C)c(C(C)C)c1 [AVASIMIBE],,,,drug-induced liver injury reported,drug-induced liver injury reported,no drug-induced liver injury reported
Nc1ncn([C@@H]2O[C@H](CO)[C@@H](O)[C@H]2O)c(=O)n1 [AZACITIDINE],drug-induced liver injury reported,drug-induced liver injury reported,no drug-induced liver injury reported,,,
Cn1cnc([N+](=O)[O-])c1Sc1ncnc2nc[nH]c12 [AZATHIOPRINE],drug-induced liver injury reported,drug-induced liver injury reported,no drug-induced liver injury reported,,,
CC[C@H]1OC(=O)[C@H](C)[C@@H](O[C@H]2C[C@@](C)(OC)[C@@H](O)[C@H](C)O2)[C@H](C)[C@@H](O[C@@H]2O[C@H](C)C[C@H](N(C)C)[C@H]2O)[C@](C)(O)C[C@@H](C)CN(C)[C@H](C)[C@@H](O)[C@]1(C)O [AZITHROMYCIN],,,,drug-induced liver injury reported,no drug-induced liver injury reported,no drug-induced liver injury reported
CC1(C)S[C@@H]2[C@H](NC(=O)[C@H](NC(=O)N3CCNC3=O)c3ccccc3)C(=O)N2[C@H]1C(=O)O [AZLOCILLIN],,,,drug-induced liver injury reported,no drug-induced liver injury reported,no drug-induced liver injury reported
C[C@H]1[C@H](NC(=O)/C(=N\OC(C)(C)C(=O)O)c2csc(N)n2)C(=O)N1S(=O)(=O)O [AZTREONAM],,,,drug-induced liver injury reported,no drug-induced liver injury reported,no drug-induced liver injury reported
CC[C@H](C)[C@H](N)C1=N[C@H](C(=O)N[C@@H](CC(C)C)C(=O)N[C@H](CCC(=O)O)C(=O)N[C@H](C(=O)N[C@H]2CCCCNC(=O)[C@H](CC(N)=O)NC(=O)[C@@H](CC(=O)O)NC(=O)[C@H](Cc3cnc[nH]3)NC(=O)[C@@H](Cc3ccccc3)NC(=O)[C@H]([C@@H](C)CC)NC(=O)[C@@H](CCCN)NC2=O)[C@@H](C)CC)CS1 [BACITRACIN] ({Ileψ(thiazoline)Cys}-L[dE]IK[dOrn]I[dF]H[dD]N; lactam 4-C),,,,no drug-induced liver injury reported,drug-induced liver injury reported,no drug-induced liver injury reported
NCC(CC(=O)O)c1ccc(Cl)cc1 (configuration not stated) [BACLOFEN],,,,drug-induced liver injury reported,no drug-induced liver injury reported,no drug-induced liver injury reported
CCC1(CC)C(=O)NC(=O)NC1=O [BARBITAL],,,,no drug-induced liver injury reported,drug-induced liver injury reported,no drug-induced liver injury reported
